Data set [1] has as its system HeLa cells. The data set can be described thus: Toxicity (IC50) on HeLa cells. It counts as cell-based, human. As to conditions: for IC50: Homo sapiens, cancerous cervical epithelium HeLa cells. As for the experimental part:
The toxicities of the compounds of the invention were determined for human cancerous cervical epithelium HeLa and normal lung fibroblast WI38 cells. The toxicities of EPIs INF-55 and INF-55Cl were quantified as controls. […] TABLE 2 compares the toxicity of compounds 7-11 on HeLa cells and normal WI38 cells.

The test system of data set [2] is MRSA (ATCC No. BAA-44; ATCC No. BAA-1717). The data set can be described thus: Light-activated killing (photodynamic therapy), colony counts. It counts as cell-based, S. aureus. Particulars: FIG. 4. The method, then:
Bacterial media was inoculated with bacteria and incubated overnight. The bacterial cultures were diluted to 5×10^8 CFU/mL using a McFarland latex turbidity standard (0.5). Compound 1 was diluted with sterile DMSO, which was added to the cell suspension in a glass culture tube. The cells were then incubated for 30 minutes at 37° C. on a rotary shaking incubator at 150 rpm. 500 μL of the treated cell suspension was added to a well on a sterile ceramic drop plate. Non-coherent white light from a Lumacare™ LC-122 unit was used to irradiate the samples. The end of the light probe was placed 3 cm above the sample well, perpendicular to the surface of the sample, and light was applied for 2 minutes (15 seconds light, 15 seconds dark). 200 μL of the irradiated sample was transferred to a 96-well plastic microtiter plate, and five ten-fold dilutions were made in the media. 10 μL of each dilution was dripped onto an agar media plate and streaked down the plate by tilting the plate down. The agar plates were incubated at 37° C. overnight, and colony counts were performed to calculate the CFU/mL.
Dose-dependent effects of treating bacteria with compound 1 and irradiation with white light were assessed by treating 10^8 CFU/mL of cells with compound 1, followed by irradiation with white light for 2 minutes. Compound 1 was added at a specific concentration to 1 mL of a 10^8 CFU/mL suspension of the respective bacterial cells, and the cells were incubated at 37° C. for approximately 45 minutes on a rotary shaker at 150 rpm. 0.5 mL of the cell suspension was removed and placed into the wells of a sterile ceramic drop plate, and then the cells were irradiated with white light from a Lumacare™ LC 122A light source for 2 minutes at a distance of approximately 3 cm. The time and distance of the light application delivered about 85 J/cm^2 of 400-700 nm light to the sample. After being irradiated, ten-fold dilutions were made of each cell sample. The dilutions were drip-streaked onto a tryptic soy agar (TSA) plate and incubated at 37° C. for 18-24 hours. Enumeration of bacteria was determined from the dilution, which produced a drip-streak containing approximately 30-300 colonies. After counting the colonies, the CFU/mL was calculated by applying the respective dilution factor and a factor of 100 to account for the 10 μL of sample taken. Appropriate controls were prepared, including cells with no treatment, cells with only compound 1 added, and cells only treated with light.

The test system of data set [3] is P. aeruginosa. The data set can be described thus: MIC against P. aeruginosa. It counts as cell-based. Particulars: Pseudomonas aeruginosa, read-out: MIC. From the text:
Only compound 1 was able to decrease the CFU/mL when used in conjunction with white light to treat P. aeruginosa.

The subject of data set [4] is MRSA (ATCC BAA-44). The data set can be described thus: Synergy with oxacillin and norfloxacin and other antibiotics (colony counts). It counts as cell-based, S. aureus. As to conditions: for Orders of Magnitude with Norfloxacin / Orders of Magnitude with Oxacillin: increase in ability to kill MRSA versus drug or compound alone. The method, then:
The synergy of compounds 1 and 7-11 with oxacillin and norfloxacin was tested against MRSA (ATCC BAA-44). An overnight culture of MRSA was first diluted to about 5×10^5 CFU/mL in TSB. Then, 1 mL of the diluted broth suspension was added to a borosilicate glass culture tube. An appropriate volume of a compound or an antibiotic drug stock was added to the broth suspension and mixed using a vortex mixer. Then an appropriate volume of an antibiotic was added to test synergy with compounds 7-11. The samples were subsequently mixed using a vortex mixer, and the samples were incubated for 18 hours at 37° C. on a rotary shaking incubator. After 18 hours, the test cultures were diluted ten-fold, 10 μL of each dilution was drip-streaked onto a TSA plate, and the samples were incubated for 18 hours at 37° C. Colony counts were then performed and the CFU/mL values were calculated.
TABLE 21 details the MIC values identified in the MRSA assay of compounds 1, 7, 8, 9, 10, 11, various antibiotics, and light.

In data set [5] the test system is VRE. The data set can be described thus: MIC against VRE. It counts as cell-based, Enterococcus faecalis. As to conditions: Enterococcus, TABLE 23, read-out: VRE MIC. As for the experimental part:
In a 12×75 mm borosilicate glass culture tube, 1 mL of cell suspension was added. Then, compound 7 was added to the cells, and the samples were mixed using a vortex mixer. […] The samples were incubated overnight at 37° C. on a rotary shaking incubator at 100 rpm.

Data set [6] deals with VRE. The data set can be described thus: Resensitization to antibiotics (log reduction, TABLE 29). It counts as cell-based, Enterococcus faecalis. As for the experimental part:
In a 96-well microtiter plate, two-fold dilutions were made of each drug (starting with 100 μM) in 100 μL of a cell suspension in TSB. The resulting samples were incubated overnight at 37° C. on a rotary shaking incubator at 100 rpm. The samples were then visually inspected for turbidity. A 20% well volume of MTT reagent (5 mg/mL) was subsequently added, and the samples were incubated for about 20 minutes.

[7] abbreviates: (½) MIC compound + (¼) MIC Norfloxacin.
The mark [8] stands for this setting: (½) MIC compound + (⅓) MIC Oxacillin.
Setting [9] is: (⅛) MIC compound + (1/7) MIC Norfloxacin.
[10] abbreviates: (⅛) MIC compound + (¼) MIC Oxacillin.
The mark [11] stands for this setting: compared to compound alone, FIGS. 34, 39, 41.

The record followed here is patent publication US9834514B2, “Antibiotic sensitivity-restoring and photosensitive agents” (New Mexico Tech Research Foundation, priority 2015, dated 2017).

A word on the IC50: it is the concentration at which inhibition is half-maximal. The MIC is the lowest concentration that inhibits growth of the organism.

≈ marks a conversion by molar mass, not a printed value.

In turn, `Clc1ccc(/N=N/c2c[nH]c3ccccc23)cc1` [Compound 9] registered an IC50 in data set [1] of 34.4 µM. Besides, the “toxicity to HeLa versus normal WI38 cells” value in data set [1] (comparison of TABLE 2 values) is listed as “killed cancerous HeLa cells at concentrations that were not toxic to normal WI38 cells”. The “appearance of MRSA cells in SEM image” value is recorded as “undamaged” in data set [2] (compound 9 alone, no light); “appear to have burst from the inside” in data set [2] (compound 9 at 25 uM and light (LumaCare)). Also, the values for the MIC in data set [3] and in data set [5] were > 100 µM and > 200 µM, respectively. The “% Kill” value in data set [4] (setting [7]) and in data set [4] (setting [8]) was 99% in each case. The “Surviving MRSA” value in data set [4] (setting [7]) and in data set [4] (setting [8]) was 1.00 × 10^−2 each time. Moreover, in data set [4] (FIGS. 35-38), the “MICs greater than cells treated with compound alone, with norfloxacin” value is listed as “two-fold”. The “MICs greater than cells treated with compound alone, with oxacillin” value in data set [4] (FIGS. 35-38) is reported as “two-fold”. Besides, the “Orders of Magnitude with Norfloxacin” value in data set [4] is >2. The “Orders of Magnitude with Oxacillin” value in data set [4] is >2. Besides, the “Log Reduction” value was 4 in data set [6] (compound 75 μM, Norfloxacin ([…])) and 3-4 in data set [6] (compound 75 μM, Tetracycline (1.5 μg/mL)).

`Clc1ccc(Oc2c(-c3ccc(Cl)cc3)[nH]c3ccc(Cl)cc23)cc1` [Compound 11] displayed an IC50 in data set [1] of 25.9 µM. Also, in data set [3], the MIC is > 100 µM. Moreover, in data set [4] (setting [9]), the “% Kill” value is 99.99% and the “Surviving MRSA” value is given as 1.00 × 10^−5. In data set [4] (setting [10]), the “% Kill” value was determined as 99.99% and the “Surviving MRSA” value is 1.00 × 10^−5. In addition, in data set [4] (TABLE 6), the “Synergy with Norfloxacin” value is listed as 8-log reduction and the “Synergy with Oxacillin” value is reported as 5-log reduction. Besides, in data set [4] (setting [11]), the “log reduction in the number of surviving cells (CFU/mL), co-treatment with norfloxacin” value is listed as ~8 log and the “log reduction in the number of surviving cells (CFU/mL), co-treatment with oxacillin” value is ~5 log. Further, the “killing of MRSA in conjunction with oxacillin” value in data set [4] (compound 11 at 1 μM, FIG. 40) is “more effective at killing MRSA when used in conjunction with oxacillin”. In data set [4], the “Orders of Magnitude with Norfloxacin” value is listed as 5 and the “Orders of Magnitude with Oxacillin” value was found to be 5. The MIC in data set [5] is 20 µM (≈ 7.77 µg/mL). The “Log Reduction” value in data set [6] (compound 0.5 μM, Norfloxacin ([…])) is 3-4. Further, the “Log Reduction” value in data set [6] (compound 0.5 μM, Tetracycline (1.5 μg/mL)) was determined as 3. The “Log Reduction” value in data set [6] (compound 0.5 μM, Vancomycin (3.5 μg/mL)) was 3.
